Data taken from patent US7880007B2, “Bicyclic substituted phenyl piperidine modulators of muscarinic receptors” (Vertex Pharmaceuticals Incorporated, priority 2004, dated 2011).

How the values were obtained:
Type in all cases: cell-based
[1] = biological target: T1, M1 muscarinic receptor (Homo sapiens, UniProt P11229); experiment: Functional mobilization of intracellular calcium (FLIPR), M1-CHO cells; conditions: for Emax: 100% efficacy = maximum response obtained with the Carbachol control; for M1 Activity: M1-CHO cells, calcium mobilization (FLIPR)
T1 construct: expressed in transfected cells; host or cells: CHO (M1-CHO)
T1 sequence (P11229 1-460): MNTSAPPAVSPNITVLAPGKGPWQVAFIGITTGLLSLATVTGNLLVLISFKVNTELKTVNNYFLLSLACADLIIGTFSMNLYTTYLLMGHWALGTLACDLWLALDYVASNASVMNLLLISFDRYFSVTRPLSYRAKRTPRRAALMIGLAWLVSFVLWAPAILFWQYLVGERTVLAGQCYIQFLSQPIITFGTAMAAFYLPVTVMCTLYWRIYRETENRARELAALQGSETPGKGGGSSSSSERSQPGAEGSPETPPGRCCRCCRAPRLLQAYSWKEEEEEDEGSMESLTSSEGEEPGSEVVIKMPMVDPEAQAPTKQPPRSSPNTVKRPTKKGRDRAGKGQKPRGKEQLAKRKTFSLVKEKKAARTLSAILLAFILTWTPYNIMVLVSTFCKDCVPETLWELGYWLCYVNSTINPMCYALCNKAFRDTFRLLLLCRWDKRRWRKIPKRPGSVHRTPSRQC
In short: (§1)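 Calcium mobilisation read by FLIPR over 60 s (ex 488/em 540 nm) in recombinant muscarinic CHO lines loaded with calcium dye plus 1 mM probenecid. Compounds tested as agonists alone, or as inhibitors against EC80 carbachol after 15 min pre-incubation or co-addition; 0.5% DMSO; efficacy scaled to carbachol maximal response.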

[2] = biological target: T2, M2 muscarinic receptor (Homo sapiens, UniProt P08172); experiment: Functional mobilization of intracellular calcium (FLIPR), M2-CHO cells; conditions: for Emax: 100% efficacy = maximum response obtained with the Carbachol control; for M2 Activity: M2-CHO cells, calcium mobilization (FLIPR)
T2 construct: expressed in transfected cells; host or cells: CHO (M2-CHO)
T2 sequence (P08172 1-466): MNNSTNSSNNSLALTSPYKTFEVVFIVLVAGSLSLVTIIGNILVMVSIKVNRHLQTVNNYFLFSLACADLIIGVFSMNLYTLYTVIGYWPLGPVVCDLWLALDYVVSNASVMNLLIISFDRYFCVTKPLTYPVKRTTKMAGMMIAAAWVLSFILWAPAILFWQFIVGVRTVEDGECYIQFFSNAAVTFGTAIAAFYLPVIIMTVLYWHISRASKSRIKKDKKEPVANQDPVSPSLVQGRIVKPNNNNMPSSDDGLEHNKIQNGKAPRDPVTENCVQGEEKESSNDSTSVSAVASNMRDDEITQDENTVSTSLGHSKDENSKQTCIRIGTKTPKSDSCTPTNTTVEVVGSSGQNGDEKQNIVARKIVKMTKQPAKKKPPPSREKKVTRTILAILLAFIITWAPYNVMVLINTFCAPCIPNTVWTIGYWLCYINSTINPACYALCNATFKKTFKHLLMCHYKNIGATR
In short: as §1

[3] = biological target: T3, M3 muscarinic receptor (Homo sapiens, UniProt P20309); experiment: Functional mobilization of intracellular calcium (FLIPR), M3-CHO cells; conditions: for Emax: 100% efficacy = maximum response obtained with the Carbachol control; for M3 Activity: M3-CHO cells, calcium mobilization (FLIPR)
T3 construct: expressed in transfected cells; host or cells: CHO (M3-CHO)
In short: as §1

[4] = biological target: T4, M4 muscarinic receptor (Homo sapiens, UniProt P08173); experiment: Functional mobilization of intracellular calcium (FLIPR), M4-CHO cells; conditions: for Emax: 100% efficacy = maximum response obtained with the Carbachol control; for M4 Activity: M4-CHO cells, calcium mobilization (FLIPR)
T4 construct: expressed in transfected cells; host or cells: CHO (M4-CHO)
T4 sequence (P08173 1-479): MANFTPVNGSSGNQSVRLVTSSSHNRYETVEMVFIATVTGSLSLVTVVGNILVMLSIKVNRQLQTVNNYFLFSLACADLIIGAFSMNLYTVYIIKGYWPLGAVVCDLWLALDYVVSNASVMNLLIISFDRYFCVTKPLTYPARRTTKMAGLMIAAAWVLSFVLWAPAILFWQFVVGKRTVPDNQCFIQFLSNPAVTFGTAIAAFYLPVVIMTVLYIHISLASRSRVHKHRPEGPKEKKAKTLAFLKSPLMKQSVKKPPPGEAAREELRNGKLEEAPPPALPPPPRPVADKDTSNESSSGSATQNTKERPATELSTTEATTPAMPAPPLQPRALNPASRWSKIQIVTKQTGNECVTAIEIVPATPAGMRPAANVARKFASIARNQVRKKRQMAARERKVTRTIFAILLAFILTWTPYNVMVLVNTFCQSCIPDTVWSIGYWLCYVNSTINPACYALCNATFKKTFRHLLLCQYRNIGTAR
In short: as §1

T3 sequence (P20309 whole entry): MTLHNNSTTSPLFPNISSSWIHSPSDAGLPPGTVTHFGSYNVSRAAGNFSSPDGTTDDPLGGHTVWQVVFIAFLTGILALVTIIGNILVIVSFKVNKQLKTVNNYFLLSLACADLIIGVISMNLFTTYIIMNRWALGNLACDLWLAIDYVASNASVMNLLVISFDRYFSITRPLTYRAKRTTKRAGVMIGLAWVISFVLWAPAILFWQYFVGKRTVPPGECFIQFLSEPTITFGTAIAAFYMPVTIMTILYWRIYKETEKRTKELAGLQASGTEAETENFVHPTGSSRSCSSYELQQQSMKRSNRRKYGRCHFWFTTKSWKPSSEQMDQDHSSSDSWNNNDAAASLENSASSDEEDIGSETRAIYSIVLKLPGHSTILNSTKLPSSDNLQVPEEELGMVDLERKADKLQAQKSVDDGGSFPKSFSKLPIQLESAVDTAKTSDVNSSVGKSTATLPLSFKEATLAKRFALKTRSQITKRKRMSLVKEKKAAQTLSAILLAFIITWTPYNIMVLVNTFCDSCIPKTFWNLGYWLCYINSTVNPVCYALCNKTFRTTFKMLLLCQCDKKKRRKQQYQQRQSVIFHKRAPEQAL

| SMILES | Emax [1] | Emax [2] | Emax [3] | Emax [4] | M1 Activity [1] | M2 Activity [2] | M3 Activity [3] | M4 Activity [4] |
| --- | --- | --- | --- | --- | --- | --- | --- | --- |
| COc1ccccc1C1CCN(C2CC[C@@H](C)C2)CC1 (stereo partly shown) [Compound 210] | 25 to 100% | < 25% | < 25% | 25 to 100% | + (activity was measured to be greater than 5.0 μM) | + (activity was measured to be greater than 5.0 μM) | + (activity was measured to be greater than 5.0 μM) | +++ (activity was measured to be less than 1.0 μM) |
| CCOC(=O)N1CCC(N2CCC(c3ccccc3OC)CC2)CC1 [Compound 211] | 25 to 100% | 25 to 100% | 25 to 100% | > 100% | +++ (activity was measured to be less than 1.0 μM) | +++ (activity was measured to be less than 1.0 μM) | + (activity was measured to be greater than 5.0 μM) | +++ (activity was measured to be less than 1.0 μM) |
| Cc1ccc(F)cc1C1CCN([C@H]2C[C@H]3CC[C@H]2C3)CC1 [Compound 212] | 25 to 100% | < 25% | < 25% | 25 to 100% | + (activity was measured to be greater than 5.0 μM) | + (activity was measured to be greater than 5.0 μM) | + (activity was measured to be greater than 5.0 μM) | +++ (activity was measured to be less than 1.0 μM) |
| COc1ccc(Cl)cc1C1(F)CCN(C[C@H]2C[C@H]3C=C[C@H]2C3)CC1 [Compound 213] | 25 to 100% | 25 to 100% | < 25% | 25 to 100% | + (activity was measured to be greater than 5.0 μM) | ++ (activity was measured to be from 1.0 μM to 5.0 μM) | + (activity was measured to be greater than 5.0 μM) | +++ (activity was measured to be less than 1.0 μM) |
| COc1ccc(-c2ccc(S(=O)(=O)C(C)C)cc2)cc1C1CCN([C@H]2C[C@H]3CC[C@H]2C3)CC1 [Compound 214] | 25 to 100% | < 25% | < 25% | 25 to 100% | + (activity was measured to be greater than 5.0 μM) | + (activity was measured to be greater than 5.0 μM) | + (activity was measured to be greater than 5.0 μM) | ++ (activity was measured to be from 1.0 μM to 5.0 μM) |
| CCOC(=O)N1C2CCC1CC(N1CCC(c3cc(-c4ccc(S(=O)(=O)N5CCCC5)cc4)ccc3OC)CC1)C2 (stereo not shown) [Compound 215] | 25 to 100% | < 25% | < 25% | < 25% | + (activity was measured to be greater than 5.0 μM) | + (activity was measured to be greater than 5.0 μM) | + (activity was measured to be greater than 5.0 μM) | + (activity was measured to be greater than 5.0 μM) |
| COc1ccc(-c2ccccc2F)cc1C1CCN([C@H]2C[C@H]3CC[C@H]2C3)CC1 [Compound 216] | < 25% | < 25% | < 25% | 25 to 100% | + (activity was measured to be greater than 5.0 μM) | + (activity was measured to be greater than 5.0 μM) | + (activity was measured to be greater than 5.0 μM) | + (activity was measured to be greater than 5.0 μM) |
| CCOC(=O)N1C2CCC1CC(N1CCC(F)(c3cc(Cl)ccc3OC)CC1)C2 (stereo not shown) [Compound 219, 4-(5-chloro-2-methoxyphenyl)-4-fluoropiperidine tropane ethyl carbamate] | 25 to 100% | < 25% | < 25% | 25 to 100% | +++ (activity was measured to be less than 1.0 μM) | + (activity was measured to be greater than 5.0 μM) | + (activity was measured to be greater than 5.0 μM) | +++ (activity was measured to be less than 1.0 μM) |
| CCOC(=O)N1C2CCC1CC(N1CCC(c3cc(-c4ccc(C(=O)NC)c(Cl)c4)ccc3OC)CC1)C2 (stereo not shown) [Compound 226] | < 25% | < 25% | < 25% | 25 to 100% | + (activity was measured to be greater than 5.0 μM) | + (activity was measured to be greater than 5.0 μM) | + (activity was measured to be greater than 5.0 μM) | ++ (activity was measured to be from 1.0 μM to 5.0 μM) |

Continued, in another order:

| Emax [1] | Emax [2] | Emax [3] | Emax [4] | SMILES | M1 Activity [1] | M2 Activity [2] | M3 Activity [3] | M4 Activity [4] |
| --- | --- | --- | --- | --- | --- | --- | --- | --- |
| 25 to 100% | < 25% | < 25% | 25 to 100% | CCOC(=O)N1CCC(CN2CCC(c3cccc4c3OCO4)CC2)CC1 [Compound 217] | +++ (activity was measured to be less than 1.0 μM) | + (activity was measured to be greater than 5.0 μM) | ++ (activity was measured to be from 1.0 μM to 5.0 μM) | +++ (activity was measured to be less than 1.0 μM) |
| 25 to 100% | < 25% | < 25% | 25 to 100% | COc1ccccc1C1CCN(C2CCC3CCC2C3)CC1 (stereo not shown) [Compound 221] | + (activity was measured to be greater than 5.0 μM) | + (activity was measured to be greater than 5.0 μM) | + (activity was measured to be greater than 5.0 μM) | +++ (activity was measured to be less than 1.0 μM) |
| < 25% | < 25% | < 25% | 25 to 100% | COc1ccc(C#CCC(C)C)cc1C1CCN([C@H]2C[C@H]3CC[C@H]2C3)CC1 [Compound 223] | + (activity was measured to be greater than 5.0 μM) | + (activity was measured to be greater than 5.0 μM) | + (activity was measured to be greater than 5.0 μM) | + (activity was measured to be greater than 5.0 μM) |
| 25 to 100% | < 25% | < 25% | 25 to 100% | COc1ccccc1C1CCN(C2CCCCCC2)CC1 [Compound 224] | + (activity was measured to be greater than 5.0 μM) | + (activity was measured to be greater than 5.0 μM) | + (activity was measured to be greater than 5.0 μM) | +++ (activity was measured to be less than 1.0 μM) |
| 25 to 100% | < 25% | < 25% | 25 to 100% | Cc1cccc(C2CCN(C3C[C@H]4CC[C@H]3C4)CC2)c1C (stereo partly shown) [Compound 225] | + (activity was measured to be greater than 5.0 μM) | + (activity was measured to be greater than 5.0 μM) | + (activity was measured to be greater than 5.0 μM) | ++ (activity was measured to be from 1.0 μM to 5.0 μM) |
